Tests used:
[1] = target: T1, PIP4K2A (full length protein, SignalChem) (Homo sapiens, UniProt P48426); assay: Kinase Assay PIP4K2 A (Sprint); ADP-Glo biochemical assay; conditions: Table 2; compounds listed under IC50 range headings
T1 construct: 4 nM PIP4K2A (full length protein, SignalChem); purchased SignalChem
T1 sequence (P48426 1-406): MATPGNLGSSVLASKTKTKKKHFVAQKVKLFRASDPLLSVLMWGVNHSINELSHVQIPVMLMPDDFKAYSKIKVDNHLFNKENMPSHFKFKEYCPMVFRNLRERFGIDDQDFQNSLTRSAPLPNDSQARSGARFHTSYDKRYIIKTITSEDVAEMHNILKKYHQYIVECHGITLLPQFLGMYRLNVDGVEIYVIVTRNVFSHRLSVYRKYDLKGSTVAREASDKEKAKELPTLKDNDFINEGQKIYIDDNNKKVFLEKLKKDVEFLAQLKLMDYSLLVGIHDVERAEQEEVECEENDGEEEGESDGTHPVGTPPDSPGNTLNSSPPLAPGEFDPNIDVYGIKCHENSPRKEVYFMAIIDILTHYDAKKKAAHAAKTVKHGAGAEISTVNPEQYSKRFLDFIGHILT
Method: Dilution series of the compounds were prepared in DMSO at 100 times the final assay concentration (n1=n0/3 in 10 points). The compounds were further diluted to three times the assay concentration in assay buffer (20 mM MOPS pH 7.2, 25 mM magnesium chloride, 0.005% Tween 20). 6 μL of the diluted compounds were added to a 384 well assay plate followed by 9 μL of a mix consisting of 4 nM PIP4K2A (full length protein, SignalChem) and 100 μM PI(5)P diC8 (Tebu-Bio). Enzyme and compounds were pre-incubated at room temperature for 15 min.
Then 3 μL of a solution containing 60 μM ATP (Promega) in assay buffer was added to the wells containing compound and enzyme and mixing was performed by pipetting several times. The reaction was incubated at room temperature for 1 h. Then 18 μL of ADP-Glo™ Reagent (Promega) was added to stop the kinase reaction and deplete the unconsumed ATP, mixing was performed by pipetting several times. The plate was incubated at room temperature for 40 min before addition of 36 μL of Kinase Detection Reagent (Promega) to convert ADP to ATP and introduce luciferase and luciferin to detect ATP. The reaction was incubated at room temperature for 40 min before the luminescence was measured in a in a Victor 3V 1420 multilabel counter (Perkin Elmer).
Percent inhibition of the compounds as compared to dimethyl sulfoxide treated control samples was calculated. Compound concentration versus percent inhibition were fitted to generate IC50 values.

GST tagged PIP4KtypeIIB = target: T2, GST tagged PIP4KtypeIIB (Homo sapiens, UniProt P78356); assay: Trans-FI P kinase assay PIP4K2B (PIP4KtypeIIB inhibition assay); format: biochemical; conditions: Table 4; compounds listed under IC50 range headings; 100 uM GTP, 5 nM PIP4KIIB; read-out: Trans-FI P kinase assays: PIP4K2B IC50
T2 construct: made in house; host or cells: E. coli
T2 sequence (P78356 1-416): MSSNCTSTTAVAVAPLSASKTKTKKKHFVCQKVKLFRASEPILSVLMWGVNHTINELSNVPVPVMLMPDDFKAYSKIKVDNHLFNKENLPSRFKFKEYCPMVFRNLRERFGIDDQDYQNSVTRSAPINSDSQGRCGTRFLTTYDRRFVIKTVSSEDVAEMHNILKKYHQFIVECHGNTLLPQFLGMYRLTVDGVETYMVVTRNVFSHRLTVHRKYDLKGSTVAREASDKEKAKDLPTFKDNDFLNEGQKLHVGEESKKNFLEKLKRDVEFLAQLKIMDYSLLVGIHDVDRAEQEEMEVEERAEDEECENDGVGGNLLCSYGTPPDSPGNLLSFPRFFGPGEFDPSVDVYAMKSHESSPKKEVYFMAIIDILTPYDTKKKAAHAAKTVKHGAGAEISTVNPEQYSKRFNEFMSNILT
From the text: GST tagged PIP4KtypeIIA and B enzymes were overexpressed in E. Coli and purified to >80% homogeneity. Phosphatidyl inositol-5-phosphate (PI5P, Cat. #850152, Avanti Polar Lipids Inc.) was used as the lipid substrate and phosphatidyl ethanolamine (DOPE 18:1, Cat. #850725, Avanti Polar Lipids Inc.) was used as the carrier lipid for assays. Ultrapure ATP and GTP was purchased from Bellbrooke Labs. ADP Glo reagents were obtained from Promega. Transcreener FI reagent was obtained from Bellbrooke labs.
1. HEPES buffer mix: 200 mM HEPES pH 7.4, 50 mM MgCl2, 0.05% v/v triton×100
2. HNE buffer: 20 mM HEPES, pH 7.4, 100 mM NaCl, 0.5 mM EGTA
3. H:E buffer: 30 mM HEPES, pH 7.4, 1 mM EGTA
GST-tagged PIP4KtypeIIB (3.4 uL, 2.77 mg/mL) was diluted to 5 mL using HNE buffer to yield 5× enzyme stock (25 nM)
Lipid Preparation: In a 10 mL pyrex glass vial, lug of PI5P and lug of DOPE were suspended in 2.5 mL of HEPES buffer mix and 2.5 mL of H:E buffer. The contents were mixed and sonicated for 3 min to yield a translucent lipid stock.
Compound Preparation: Compounds were stored as 5 mM stocks in neat DMSO as room temperature in glass vials. 5 mM stocks were diluted to 2 mM and then serially diluted (3×) in neat DMSO in 96 well polypropylene plates. From the serially diluted stocks, 3 uL was delivered into 250 uL of 25% DMSO (in water) to generate 5× compound stocks. Typically, the highest compound conc. was 24 uM.
The assay volume was kept at 25 uL. To each well of the reaction plate, 10 uL of lipid stock (1:1 ratio PI5P:DOPE) was delivered. This was followed by the addition of 5 uL of compound in 25% DMSO. Then, to each well, 5 uL of 25 nM (5×) typeIIB enzyme was delivered. The contents were mixed well and incubated for 1 h at 27 C. After 1 h, reaction was initiated by adding 5 uL of 500 uM GTP and the contents were mixed well with a multi-channel pipetteman. The final concentration of the reagents are as follows: 50 mM HEPES, pH 7.3, 10 mM MgCl2, 20 mM NaCl, 0.01% v/v triton-X100, 5% DMSO, 100 uM GTP, 80 uM (2 ug) PI5P, 2 ug DOPE, and 5 nM PIP4KIIB Typically, the highest conc. of compounds was 4.8 uM and the lowest conc. was 0.
After 2 h, the reaction was quenched by adding 25 uL of transcreener FI reagent. The contents were incubated at RT for 1 h and the Fluorescence (Ex: 584 Em: 623) was read using Molecular Devices Paradigm plate reader. […] The blanks were averaged and subtracted from all other wells. Using a calibration curve, RFU was converted to uM GDP (product). IC50 was calculated by plotting the residual activity (expressed as % No inhibitor control) vs. log [Inh. conc.] Table 2 represents PI5P4K activity of compounds (Example No.) of the invention arranged in accordance with the inhibition of PIP4K2 A kinase assay.

Row | Compound | IC50 [1] | IC50 (GST tagged PIP4KtypeIIB)
1 | Cc1c[nH]c2nccc(-c3cc(-c4ccc(N5CCCC5=O)cc4)cnc3N)c12 [Example 316, 1-(4-(6-amino-5-(3-methyl-1H-pyrrolo[2,3-b]pyridin-4-yl)pyridin-3-yl)phenyl)pyrrolidin-2-one] | 1 to 2.5 µM | 0.01 to 0.1 µM
2 | Cc1cccc2[nH]c(CNC(=O)c3cc4c(-c5cncc(-c6ccc(N7CCCC7=O)cc6)c5)ccnc4[nH]3)nc12 [Example 317, N-((4-methyl-1H-benzo[d]imidazol-2-yl)methyl)-4-(5-(4-(2-oxopyrrolidin-1-yl)phenyl)pyridin-3-yl)-1H-pyrrolo[2,3-b]pyridine-2-carboxamide] | < 5 µM | 0.01 to 0.1 µM
3 | Cc1[nH]nc2nccc(-c3cncc(-c4ccc(N5CCCC5=O)cc4)c3)c12 [Example 318, 1-(4-(5-(3-methyl-2H-pyrazolo[3,4-b]pyridin-4-yl)pyridin-3-yl)phenyl)pyrrolidin-2-one] | 1 to 2.5 µM | 0.1 to 1 µM
4 | O=C(NCc1nc2ccccc2s1)c1cc2c(-c3cncc(-c4ccc(N5CCCC5=O)cc4)c3)ccnc2[nH]1 [Example 319, N-(benzo[d]thiazol-2-ylmethyl)-4-(5-(4-(2-oxopyrrolidin-1-yl)phenyl)pyridin-3-yl)-1H-pyrrolo[2,3-b]pyridine-2-carboxamide] | 0.1 to 1 µM | 0.01 to 0.1 µM
5 | Cc1ccc2nc(CNC(=O)c3cc4c(-c5cncc(-c6ccc(N7CCCC7=O)cc6)c5)ccnc4[nH]3)[nH]c2c1 [Example 320, N-((6-methyl-1H-benzo[d]imidazol-2-yl)methyl)-4-(5-(4-(2-oxopyrrolidin-1-yl)phenyl)pyridin-3-yl)-1H-pyrrolo[2,3-b]pyridine-2-carboxamide] | 1 to 2.5 µM | 0.1 to 1 µM
6 | Cn1c(CNC(=O)c2cc3c(-c4cncc(-c5ccc(N6CCCC6=O)cc5)c4)ccnc3[nH]2)nc2ccccc21 [Example 321, N-((1-methyl-1H-benzo[d]imidazol-2-yl)methyl)-4-(5-(4-(2-oxopyrrolidin-1-yl)phenyl)pyridin-3-yl)-1H-pyrrolo[2,3-b]pyridine-2-carboxamide] | < 5 µM | 0.1 to 1 µM
7 | O=C(NCc1nc2ccccc2[nH]1)c1cc2c(-c3cncc(-c4ccc(N5CCCC5=O)cc4)c3)ccnc2[nH]1 [Example 322, N-((1H-benzo[d]imidazol-2-yl)methyl)-4-(5-(4-(2-oxopyrrolidin-1-yl)phenyl)pyridin-3-yl)-1H-pyrrolo[2,3-b]pyridine-2-carboxamide] | 1 to 2.5 µM | 0.01 to 0.1 µM
8 | Cc1c[nH]c2nccc(-c3cncc(-c4ccc(N5CCCC5=O)cc4)c3)c12 [Example 323, 1-(4-(5-(3-methyl-1H-pyrrolo[2,3-b]pyridin-4-yl)pyridin-3-yl)phenyl)pyrrolidin-2-one] | 1 to 2.5 µM | 0.1 to 1 µM
9 | CCN(C)C(=O)c1ccc(-c2cncc(-c3ccnc4c3cc3n4CCN(C)C3=O)c2)cc1 [Example 324, N-ethyl-N-methyl-4-(5-(7-methyl-6-oxo-6,7,8,9-tetrahydropyrido[3′,2′:4,5]pyrrolo[1,2-a]pyrazin-4-yl)pyridin-3-yl)benzamide] | 0.1 to 1 µM | 0.01 to 0.1 µM
10 | Cc1ccc2c(c1)N(C(=O)c1cc3c(-c4cncc(-c5ccc(N6CCCC6=O)cc5)c4)ccnc3[nH]1)CCO2 [Example 325, 1-(4-(5-(2-(6-methyl-3,4-dihydro-2H-benzo[b][1,4]oxazine-4-carbonyl)-1H-pyrrolo[2,3-b]pyridin-4-yl)pyridin-3-yl)phenyl)pyrrolidin-2-one] | 0.005 to 0.1 µM | 0.1 to 1 µM
11 | CN1CCn2c(cc3c(-c4cncc(-c5ccc(N6CC(C)(C)CCC6=O)cc5)c4)ccnc32)C1=O [Example 326, 4-(5-(4-(5,5-dimethyl-2-oxopiperidin-1-yl)phenyl)pyridin-3-yl)-7-methyl-8,9-dihydropyrido[3′,2′:4,5]pyrrolo[1,2-a]pyrazin-6(7H)-one] | 1 to 2.5 µM | 0.1 to 1 µM
12 | CN1CCn2c(cc3c(-c4cncc(-c5ccc(C(=O)N6CCOCC6)cc5)c4)ccnc32)C1=O [Example 327, 7-methyl-4-(5-(4-(morpholine-4-carbonyl)phenyl)pyridin-3-yl)-8,9-dihydropyrido[3′,2′:4,5]pyrrolo[1,2-a]pyrazin-6(7H)-one] | 2.5 to 5 µM | 0.1 to 1 µM
13 | O=C(Nc1cccnc1)c1cc2c(-c3cncc(-c4ccc(N5CCCC5=O)cc4)c3)ccnc2[nH]1 [Example 328, 4-(5-(4-(2-oxopyrrolidin-1-yl)phenyl)pyridin-3-yl)-N-(pyridin-3-yl)-1H-pyrrolo[2,3-b]pyridine-2-carboxamide] | 2.5 to 5 µM | 0.01 to 0.1 µM
14 | O=C(Nc1ccccc1)c1cc2c(-c3cncc(-c4ccc(N5CCCC5=O)cc4)c3)ccnc2[nH]1 [Example 329, 4-(5-(4-(2-oxopyrrolidin-1-yl)phenyl)pyridin-3-yl)-N-phenyl-1H-pyrrolo[2,3-b]pyridine-2-carboxamide] | 2.5 to 5 µM | 0.01 to 0.1 µM
15 | O=C(NCc1ncco1)c1cc2c(-c3cncc(-c4ccc(N5CCCC5=O)cc4)c3)ccnc2[nH]1 [Example 330, N-(oxazol-2-ylmethyl)-4-(5-(4-(2-oxopyrrolidin-1-yl)phenyl)pyridin-3-yl)-1H-pyrrolo[2,3-b]pyridine-2-carboxamide] | 0.1 to 1 µM | 0.01 to 0.1 µM
16 | Cc1cc(N2CCn3c(cc4c(-c5cncc(-c6ccc(N7CCCC7=O)cc6)c5)ccnc43)C2=O)nn1C [Example 331, 7-(1,5-dimethyl-1H-pyrazol-3-yl)-4-(5-(4-(2-oxopyrrolidin-1-yl)phenyl)pyridin-3-yl)-8,9-dihydropyrido[3′,2′:4,5]pyrrolo[1,2-a]pyrazin-6(7H)-one] | 0.1 to 1 µM | 0.01 to 0.1 µM
